What was measured:
normal human melanocytes [1] = assay: Cytotoxicity on normal human melanocytes, PNPP determination; type: cell-based; conditions: 24 hours
Protocol: The cytotoxicity of the actives is studied on normal human melanocytes in a 24-well plate by a determination with PNPP(P-nitrophenyl phosphate), a substance which is converted into p-nitrophenol by the intracellular acid phosphatases of viable cells.
The absorbance of p-nitrophenol at 405 nm is directly proportional to the number of viable cells.
The actives are tested at 2 different concentrations (10^−4 M and 10^−5 M) and are added to the culture medium and are incubated at 37° C. for 24 hours. The determination with PNPP is carried out on a cell mat and the results are expressed as a percentage viability with respect to the negative control (non-treated wells).

Human tyrosinase = molecular target: T1, Human tyrosinase (Homo sapiens, UniProt P14679); assay: Inhibition of human tyrosinase in a monolayer after application of the actives on normal human melanocytes; type: cell-based; conditions: for Inhibition of human tyrosinase after application on normal human melanocytes, percentage inhibition: 24 hours; for Inhibition of human tyrosinase on normal human melanocytes, result in words: model of Example 15
T1 construct: Normal human melanocytes (originating from abdominal plasty) are sown in a 24-well plate; endogenous in cells; host or cells: normal human melanocytes (abdominal plasty; donors of light, brown and black phototype)
T1 sequence (P14679 19-529): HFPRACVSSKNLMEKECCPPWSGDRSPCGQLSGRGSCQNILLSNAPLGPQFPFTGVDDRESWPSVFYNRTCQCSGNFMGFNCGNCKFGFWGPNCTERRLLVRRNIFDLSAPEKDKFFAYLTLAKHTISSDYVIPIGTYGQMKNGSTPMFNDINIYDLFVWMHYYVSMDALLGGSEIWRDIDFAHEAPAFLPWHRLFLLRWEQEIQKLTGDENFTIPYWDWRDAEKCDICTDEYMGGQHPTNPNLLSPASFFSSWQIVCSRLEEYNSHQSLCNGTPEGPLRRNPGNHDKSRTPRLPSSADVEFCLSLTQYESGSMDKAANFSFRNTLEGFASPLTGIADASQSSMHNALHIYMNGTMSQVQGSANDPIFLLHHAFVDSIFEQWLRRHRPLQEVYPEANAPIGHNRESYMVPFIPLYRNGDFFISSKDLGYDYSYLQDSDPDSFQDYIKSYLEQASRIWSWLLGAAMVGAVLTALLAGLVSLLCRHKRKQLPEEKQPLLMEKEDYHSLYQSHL
Protocol: Normal human melanocytes (originating from abdominal plasty) are sown in a 24-well plate at the rate of 80,000 cells per well. They are cultivated up to confluence and the actives are applied for 24 hours in the culture media. After 24 hours, the media are removed and the melanocytes are picked up by mechanical action. An extraction is made by heat shock and the supernatants are then recovered and then incubated with MBTH (Sigma) and L-Dopa (Sigma). The OD at 490 nm is measured after 30 minutes, and the inhibition is of the tyrosinase is calculated by comparing the OD at 490 nm to the protein level (measured in each culture well) of the test with respect to the ratio: OD 490 nm/concentration of protein of the negative control (non-treated control). […]

normal human melanocytes [2] = system: normal human melanocytes
Excerpt: A study is made with molecules known in the literature for their depigmenting activity. These molecules are applied to the model described in Example 15 so as to compare their efficiency with respect to the aurones is described above.

eye of rabbits = assay: Evaluation of the ocular irritation in the rabbit (OECD 405); type: in vivo; conditions: compound at 10% in a 0.5% xanthan gum, instilled pure, 0.1 ml
Protocol: (§1) Toxicology tests were carried out on the compound obtained according to Example 9 incorporated at 10% in a 0.5% xanthan gum, by an ocular evaluation in the rabbit, by the study of the absence of abnormal toxicity by single oral administration in the rat and by the study of the sensitizing power in the guinea pig.
The preparations described above were instilled pure and in one batch at the rate of 0.1 ml in the eye of three rabbits according to the method recommended by the directive of the OECD NO. 405 of Feb. 24, 1987, in relation to the study of “the acute irritant/corrosive effect on the eyes”.

in vivo = conditions: both sexes, rat, po
Protocol: as §1
(§2) The preparations described were administered in one batch orally at the dose of 5 g/Kg of body weight, to 5 male rats and 5 female rats according to a protocol inspired from the Directive of the OECD No. 401 of Feb. 24, 1987 and adapted to cosmetic products. The LD0 and LD50 are found to be greater than 5,000 mg/Kg. The preparations tested are therefore not classed amongst the preparations which are dangerous by ingestion.

rat = assay: in vivo; conditions: both, po
Protocol: as §1, §2

guinea pig = assay: Skin sensitisation potential in the guinea pig, Magnusson and Kligmann maximization test (OECD 406); type: in vivo; conditions: compound at 10% in a 0.5% xanthan gum
Protocol: as §1
The preparations described are subjected to the maximization test described by Magnusson and Kligmann, a protocol which is in agreement with the directive line No. 406 of the OECD.

Inhibition of human tyrosinase after application on normal human melanocytes, percentage inhibition (Human tyrosinase; 10^−5M) [%]	Compound	Percentages viability on normal human melanocytes (normal human melanocytes [1]; 10^−4 M) [%]	Percentages viability on normal human melanocytes (normal human melanocytes [1]; 10^−5 M) [%]	further results
	COc1cc(OC)c2c(c1)OCC2=O [Example 4, 4,6-Dimethoxybenzofuran-3(2H)-one]	106.77	85.33	
	COc1cc(OC)c2c(c1)O/C(=C\c1ccc(SC)cc1)C2=O [Example 5c, (Z)-4,6-dimethoxy-2-(4′-methylthiobenzylidene)benzofuran-3(2H)-one]	80.08	136.13	
	CCc1ccc(/C=C2\Oc3cc(OC)cc(OC)c3C2=O)cc1 [Example 5b, (Z)-4,6-dimethoxy-2-(4′-ethylbenzylidene)benzofuran-3(2H)-one]		99.62	
	COc1cc(OC)c2c(c1)O/C(=C\c1ccc(C#N)cc1)C2=O [Example 5d, (Z)-2-(4′-cyanobenzylidene)-4,6-dimethoxybenzofuran-3(2H)-one]	98.93	96.51	
14.19	COc1cc(O)c2c(c1)O/C(=C\c1ccc(SC)cc1)C2=O [Example 6c]		116.24	
	O=C1O[C@H]([C@@H](O)CO)C(O)=C1OP(=O)(O)O [VitC PMG, reference compound]			Inhibition (%) of tyrosinase (Human tyrosinase; tested at 0.03%): 2.93%; Inhibition (%) of tyrosinase (Human tyrosinase; tested at 0.3%): 1.55%; Inhibition (%) of tyrosinase (Human tyrosinase; tested at 3%): −3.49%; cytotoxicity (normal human melanocytes [2]): no
	COc1cc(OC)c2c(c1)O/C(=C\c1ccccc1)C2=O [Example 5, (Z)-2-Benzylidene-4,6-dimethoxybenzofuran-3(2H)-one]	83.1	98.55	
4.52	CCc1ccc(/C=C2\Oc3cc(O)cc(O)c3C2=O)cc1 [Example 7b]	63.52	143.15	
0	COc1cc(O)c2c(c1)O/C(=C\c1ccc(C#N)cc1)C2=O [Example 6d]	85.65	119.36	Inhibition of human tyrosinase after application on normal human melanocytes, percentage inhibition (Human tyrosinase; 10^−4M): 2.31%
9.69	4,6-Dihydroxybenzofuran-3(2H)-one (R1=OH) and 6-Hydroxybenzofuran-3(2H)-one (R1=H) [Example 2]	103.84	126.09	
	COc1ccc(/C=C2\Oc3cc(O)cc(O)c3C2=O)cc1 [Example 9, (Z)-4,6-Dihydroxy-2-(4-methoxybenzylidene)benzofuran-3(2H)-one]			Ocular irritation (eye of rabbits): non-irritant for the eyes; LD50 (in vivo): > 5000 mg/kg; LD0 (rat): greater than 5,000 mg/Kg; Skin sensitisation potential (guinea pig): non-sensitizing by contact with the skin
	COc1cc(O)c2c(c1)O/C(=C\c1ccccc1)C2=O [Example 6, (Z)-2-Benzylidene-4-hydroxy-6-methoxybenzofuran-3(2H)-one]		121.56	
	O=C1/C(=C/c2ccc(O)cc2)Oc2cc(O)cc(O)c21 [Example 9b, (Z)-4,6-Dihydroxy-2-(4′-hydroxybenzylidene)benzofuran-3(2H)-one]	90.31	128.39	Inhibition of human tyrosinase on normal human melanocytes, result in words (Human tyrosinase): particularly active; Inhibition of human tyrosinase on normal human melanocytes, result in words (Human tyrosinase; listed as compound 9b): high efficiency
2.1	CCc1ccc(/C=C2\Oc3cc(OC)cc(OC)c3C2=O)s1 [Example 5r, (Z)-4,6-Dimethoxy-2-[(5-ethylthiophene)methylene]benzofuran-3(2H)-one]			Inhibition of human tyrosinase after application on normal human melanocytes, percentage inhibition (Human tyrosinase; 10^−4M): 11.9%
	COc1cc(OC)c2c(c1)O/C(=C\c1ccc(O)cc1)C2=O [Example 5a, (Z)-4,6-dimethoxy-2-(4′-hydroxybenzylidene)benzofuran-3(2H)-one]	104.53	90.87	

From US20060228313A1, “Method of cosmetic depigmentation care by applying at least one aurone” (Coletica, priority 2005, published 2006)
